Data: patent US20240207427A1, “SELECTIVE DRUG RELEASE FROM INTERNALIZED CONJUGATES OF BIOLOGICALLY ACTIVE COMPOUNDS” (priority 2021, published 2024)
Like-named read-outs stand apart in the source and are kept apart here.

Tests used:
Type in all cases: cell-based
[1] = tested on: anaplastic large cell lymphoma cells (Karpas299); assay: In vitro potency (CellTiter-Glo, 96 h), Karpas299; conditions: Homo sapiens, KARPAS-299, 96 h, CellTiter-Glo after 96 h exposure
How it was run: (§1)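 Cells in log-phase growth seeded 24 h in RPMI 1640 with 20% FBS, then exposed to serially diluted ADC or CPT free drug for 96 h at 37 °C. Growth inhibition read by CellTiter-Glo luminescence; IC50 reported in ng/mL or nmol/L.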

[2] = tested on: Ls174T cells; assay: In vitro potency (CellTiter-Glo, 96 h), Ls174T; conditions: Homo sapiens, LS174T, CellTiter-Glo after 96 h exposure
How it was run: (§2)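 Growth inhibition after 96 h at 37 °C with test article, measured by luminescence; cells in RPMI 1640, 20% FBS.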

[3] = tested on: renal carcinoma cells (786-O); assay: In vitro potency (CellTiter-Glo, 96 h), 786-O; conditions: Homo sapiens, 786-0, 96 h, CellTiter-Glo after 96 h exposure
How it was run: as §1

[4] = tested on: pancreatic cancer cells (BxPC3); assay: In vitro potency (CellTiter-Glo, 96 h), BxPC3; conditions: Homo sapiens, BXPC-3, 96 h, CellTiter-Glo after 96 h exposure
How it was run: as §2

[5] = tested on: anaplastic large cell lymphoma cells (DELBVR); assay: In vitro potency (CellTiter-Glo, 96 h), DELBVR
How it was run: as §1

[6] = tested on: acute myeloid leukemia cells (MOLM-13); assay: In vitro potency (CellTiter-Glo, 96 h), MOLM-13; conditions: Homo sapiens, MOLM-13, 96 h, CellTiter-Glo after 96 h exposure
How it was run: as §2

[7] = tested on: melanoma cells (A2058); assay: In vitro potency (CellTiter-Glo, 96 h), A2058; conditions: Homo sapiens, A2058, 96 h, read-out: IC50 (nmol/L) A2058
How it was run: (§3)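 RPMI 1640/20% FBS cultures, log phase, plated 24 h → ADC titration → 4 d, 37 °C → luminescence → IC50, ng/mL.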

[8] = tested on: non-small-cell lung cancer cells (Calu1); assay: In vitro potency (CellTiter-Glo, 96 h), Calu1; conditions: Homo sapiens, Calu-1, 96 h, read-out: IC50 (nmol/L) Calu1
How it was run: as §3

[9] = tested on: breast cancer cells (MDA-MB-231); assay: In vitro potency (CellTiter-Glo, 96 h), MDA-MB-231; conditions: Homo sapiens, MDA-MB-231, 96 h, CellTiter-Glo after 96 h exposure
How it was run: as §1

[10] = tested on: Hodgkin's lymphoma cells (L540cy); assay: In vitro potency (CellTiter-Glo, 96 h), L540cy
How it was run: as §1

[11] = tested on: anaplastic large cell lymphoma cells (DEL); assay: In vitro potency (CellTiter-Glo, 96 h), DEL
How it was run: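 Log-phase cells were seeded for 24 h in RPMI 1640 with 20% FBS, then exposed to serially diluted antibody-drug conjugates or free camptothecin drug for 4 days at 37 °C. Growth inhibition was read by luminescence, and IC50 values were reported in ng/mL and nmol/L.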

[12] = tested on: B-lymphocyte cancer cells (SU-DHL4); assay: In vitro potency (CellTiter-Glo, 96 h), SU-DHL-4; conditions: Homo sapiens, SU-DHL-4, 96 h, CellTiter-Glo after 96 h exposure
How it was run: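 Authenticated lines (STR), used within 2 months of resuscitation, were seeded 24 h before treatment. Exposure to ADC dilutions lasted 96 h at 37 °C in RPMI 1640 with 20% FBS; viability was quantified luminescently.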

[13] = CPT free drugs, Table 24, read-out: IC50 (nmol/L) Karpas299
[14] = CPT free drugs, Table 24, read-out: IC50 (nmol/L) Ls174T
[15] = CPT free drugs, Table 24, read-out: IC50 (nmol/L) 786-O
[16] = CPT free drugs, Table 24, read-out: IC50 (nmol/L) BxPC3
[17] = CPT free drugs, Table 24, CellTiter-Glo after 96 h exposure, read-out: IC50 (nmol/L) DELBVR
[18] = CPT free drugs, Table 24, read-out: IC50 (nmol/L) MOLM-13
[19] = CPT free drugs, Table 24, CellTiter-Glo after 96 h exposure
[20] = CPT free drugs, Table 24, read-out: IC50 (nmol/L) MDAMB231
[21] = CPT free drugs, Table 24, CellTiter-Glo after 96 h exposure, read-out: IC50 (nmol/L) L540cy
[22] = CPT free drugs, Table 24, CellTiter-Glo after 96 h exposure, read-out: IC50 (nmol/L) DEL
[23] = CPT free drugs, Table 24, read-out: IC50 (nmol/L) SU-DHL-4
[24] = read-out: IC50 (nmol/L) Karpas299, CPT free drugs, Table 24
[25] = 96 h, read-out: IC50 (nmol/L) Ls174T, CPT free drugs, Table 24
[26] = read-out: IC50 (nmol/L) 786-O, CPT free drugs, Table 24
[27] = read-out: IC50 (nmol/L) BxPC3, CPT free drugs, Table 24
[28] = read-out: IC50 (nmol/L) DELBVR, CPT free drugs, Table 24, CellTiter-Glo after 96 h exposure
[29] = read-out: IC50 (nmol/L) MOLM-13, CPT free drugs, Table 24
[30] = read-out: IC50 (nmol/L) MDAMB231, CPT free drugs, Table 24
[31] = read-out: IC50 (nmol/L) L540cy, CPT free drugs, Table 24, CellTiter-Glo after 96 h exposure
[32] = read-out: IC50 (nmol/L) DEL, CPT free drugs, Table 24, CellTiter-Glo after 96 h exposure
[33] = read-out: IC50 (nmol/L) SU-DHL-4, CPT free drugs, Table 24

CC[C@@]1(O)C(=O)OCc2c1cc1n(c2=O)Cc2c-1nc1ccc(Cl)cc1c2CN [Compound 2c]
IC50 [1, 13]: 8 nmol/L | IC50 [2, 14]: 3.9 nmol/L | IC50 [3, 15]: 6 nmol/L | IC50 [4, 16]: 19 nmol/L | IC50 [5, 17]: 3.3 nmol/L | IC50 [6, 18]: 21 nmol/L | IC50 [7, 19]: 3 nmol/L | IC50 [8, 19]: 45 nmol/L | IC50 [9, 20]: 6 nmol/L | IC50 [10, 21]: 5 nmol/L | IC50 [11, 22]: 1.7 nmol/L | IC50 [12, 23]: 3 nmol/L

CC[C@@]1(O)C(=O)OCc2c1cc1n(c2=O)Cc2c-1nc1ccc(OC)cc1c2CN [Compound 2d]
IC50 [1, 13]: 7 nmol/L | IC50 [2, 14]: 3.7 nmol/L | IC50 [3, 15]: 5 nmol/L | IC50 [4, 16]: 12 nmol/L | IC50 [5, 17]: 1 nmol/L | IC50 [6, 18]: 25 nmol/L | IC50 [7, 19]: 2 nmol/L | IC50 [8, 19]: 43 nmol/L | IC50 [9, 20]: 4 nmol/L | IC50 [10, 21]: 2 nmol/L | IC50 [11, 22]: 1 nmol/L | IC50 [12, 23]: 4 nmol/L

CC[C@@]1(O)C(=O)OCc2c1cc1n(c2=O)Cc2c-1nc1ccc(Br)cc1c2CN [Compound 2e]
IC50 [1, 13]: 10.7 nmol/L | IC50 [2, 14]: 4.5 nmol/L | IC50 [3, 15]: 4.2 nmol/L | IC50 [4, 16]: 30.7 nmol/L | IC50 [5, 17]: 4 nmol/L | IC50 [6, 18]: 56 nmol/L | IC50 [7, 19]: 5 nmol/L | IC50 [8, 19]: 55 nmol/L | IC50 [9, 20]: 7.1 nmol/L | IC50 [10, 21]: 4.3 nmol/L | IC50 [11, 22]: 1 nmol/L | IC50 [12, 23]: 5.7 nmol/L

CC[C@@]1(O)C(=O)OCc2c1cc1n(c2=O)Cc2c-1nc1cc(F)ccc1c2CN [Compound 2f]
IC50 [1, 13]: 6 nmol/L | IC50 [2, 14]: 3.9 nmol/L | IC50 [3, 15]: 6 nmol/L | IC50 [4, 16]: 9 nmol/L | IC50 [5, 17]: 1.2 nmol/L | IC50 [6, 18]: 11 nmol/L | IC50 [7, 19]: 2 nmol/L | IC50 [8, 19]: 40 nmol/L | IC50 [9, 20]: 4 nmol/L | IC50 [10, 21]: 3 nmol/L | IC50 [11, 22]: 1 nmol/L | IC50 [12, 23]: 4 nmol/L

CC[C@@]1(O)C(=O)OCc2c1cc1n(c2=O)Cc2c-1nc1ccc(C(F)(F)F)cc1c2CN [Compound 2g]
IC50 [1, 13]: 221 nmol/L | IC50 [2, 14]: 65.3 nmol/L | IC50 [3, 15]: 102 nmol/L | IC50 [4, 16]: 258 nmol/L | IC50 [5, 17]: 33.5 nmol/L | IC50 [6, 18]: 598 nmol/L | IC50 [7, 19]: 37 nmol/L | IC50 [8, 19]: 755 nmol/L | IC50 [9, 20]: 79 nmol/L | IC50 [10, 21]: 62 nmol/L | IC50 [11, 22]: 17.6 nmol/L | IC50 [12, 23]: 60 nmol/L

CC[C@@]1(O)C(=O)OCc2c1cc1n(c2=O)Cc2c-1nc1cc(F)c(C)cc1c2CN [Compound 2h]
IC50 [1, 13]: 3 nmol/L | IC50 [2, 14]: 1.7 nmol/L | IC50 [3, 15]: 3 nmol/L | IC50 [4, 16]: 8 nmol/L | IC50 [5, 17]: 0.8 nmol/L | IC50 [6, 18]: 14 nmol/L | IC50 [7, 19]: 1 nmol/L | IC50 [8, 19]: 16 nmol/L | IC50 [9, 20]: 2 nmol/L | IC50 [10, 21]: 3 nmol/L | IC50 [11, 22]: 0.5 nmol/L | IC50 [12, 23]: 2 nmol/L

CC[C@@]1(O)C(=O)OCc2c1cc1n(c2=O)Cc2c-1nc1cc(F)c(OC)cc1c2CN [Compound 2i]
IC50 [1, 13]: 5 nmol/L | IC50 [2, 14]: 3.4 nmol/L | IC50 [3, 15]: 5 nmol/L | IC50 [4, 16]: 10 nmol/L | IC50 [5, 17]: 1 nmol/L | IC50 [6, 18]: 13 nmol/L | IC50 [7, 19]: 2 nmol/L | IC50 [8, 19]: 31 nmol/L | IC50 [9, 20]: 4 nmol/L | IC50 [10, 21]: 2 nmol/L | IC50 [11, 22]: 1 nmol/L | IC50 [12, 23]: 4 nmol/L

CC[C@@]1(O)C(=O)OCc2c1cc1n(c2=O)Cc2c-1nc1cc(F)c(C)c(F)c1c2CN [Compound 2j]
IC50 [1, 24]: 2 nmol/L | IC50 [2, 25]: 3 nmol/L | IC50 [3, 26]: 3 nmol/L | IC50 [4, 27]: 9 nmol/L | IC50 [5, 28]: 1 nmol/L | IC50 [6, 29]: 9 nmol/L | IC50 [7]: 2 nmol/L | IC50 [8]: 23 nmol/L | IC50 [9, 30]: 2 nmol/L | IC50 [10, 31]: 1 nmol/L | IC50 [11, 32]: 1 nmol/L | IC50 [12, 33]: 2 nmol/L

CC[C@@]1(O)C(=O)OCc2c1cc1n(c2=O)Cc2c-1nc1cc(Br)c(C)c(F)c1c2CN [Compound 2k]
IC50 [1, 13]: 14 nmol/L | IC50 [2, 14]: 11.9 nmol/L | IC50 [3, 15]: 5 nmol/L | IC50 [4, 16]: 42 nmol/L | IC50 [5, 17]: 3.3 nmol/L | IC50 [6, 18]: 58 nmol/L | IC50 [7, 19]: 4 nmol/L | IC50 [8, 19]: 81 nmol/L | IC50 [9, 20]: 8 nmol/L | IC50 [10, 21]: 4 nmol/L | IC50 [11, 22]: 3.5 nmol/L | IC50 [12, 23]: 4 nmol/L

CC[C@@]1(O)C(=O)OCc2c1cc1n(c2=O)Cc2c-1nc1cc(F)c(F)cc1c2CN [Compound 2l]
IC50 [1, 13]: 8 nmol/L | IC50 [2, 14]: 8.1 nmol/L | IC50 [3, 15]: 15 nmol/L | IC50 [4, 16]: 35 nmol/L | IC50 [5, 17]: 2.1 nmol/L | IC50 [6, 18]: 16 nmol/L | IC50 [7, 19]: 4 nmol/L | IC50 [8, 19]: 42 nmol/L | IC50 [9, 20]: 8 nmol/L | IC50 [10, 21]: 4 nmol/L | IC50 [11, 22]: 3.3 nmol/L | IC50 [12, 23]: 4 nmol/L

CC[C@@]1(O)C(=O)OCc2c1cc1n(c2=O)Cc2c-1nc1cc3c(cc1c2CN)OCC3 [Compound 2m]
IC50 [1, 24]: 57.2 nmol/L | IC50 [2, 25]: 17 nmol/L | IC50 [3, 26]: 55 nmol/L | IC50 [4, 27]: 128 nmol/L | IC50 [5, 28]: 14 nmol/L | IC50 [6, 29]: 60.7 nmol/L | IC50 [7]: 16.2 nmol/L | IC50 [8]: 249 nmol/L | IC50 [9, 30]: 35 nmol/L | IC50 [10, 31]: 17.8 nmol/L | IC50 [11, 32]: 11 nmol/L | IC50 [12, 33]: 22.4 nmol/L
